The subject of data set [1] is leukotriene (LT) biosynthesis / 5-LO. Kind of data set: Overall activity across the four in vitro test systems (three cell-based LT release assays and 5-LO). As for the experimental part: Furthermore, in order to confirm that the in vitro inhibitory activity of the compounds was not due to the direct toxic effects on the cells, the effect of the compounds on the viability of isolated human monocytes after 3 h and 24 h treatment was performed. Finally, in vivo anti-inflammatory studies were performed using the zymosan-induced peritoneal inflammation model in mice, which is a well-known model in which the LTs are known to play a critical role[26].
The inhibitory activity data for the tested compounds obtained in three cell-based in vitro test systems - LTB4 release from human whole blood, LTC4 release from isolated human monocytes and LTC4 release from IgE/antigen-activated mouse mast cells, are shown in Table 1. Similar data on the direct inhibitory effect on the enzymatic activity of recombinant human 5-LO, together with the calculated Clog P (log of partition coefficient) values, which is an indication of the lipophilicity of each compound, are also shown in Table 1.

The test system of data set [2] is isolated human monocytes. Briefly: In vitro toxicity testing, MTT viability. It is filed as cell-based. The settings on record: concentrations up to 50 μM, 3 h or 24 h. As for the experimental part: Adherent human monocytes, prepared as described above were cultured with various concentrations of the test compounds or vehicle, or with 0.05% Triton-X as a positive control for 3 h or 24 h. At the end of the culture, cell viability was determined using the standard MTT assay method. Briefly, 15 μL of the MTT solution (5 mg/ml) was added to each well and incubated at 37 °C for 4 h. After removing the supernatant, 200 μL of DMSO was added to dissolve the crystals. Absorbance at 570 nm was then measured in a microplate reader. Viability was expressed as a percentage of the vehicle-treated cells.

Data set [3] relates to 5-LO-dependent generation of LTB4 from activated human whole blood. Briefly: Inhibition of 5-LO product LTB4 from activated human whole blood (LPS/FMLP). Type of data set: cell-based. To be noted: LPS-primed, FMLP-stimulated human whole blood; 95% confidence interval in brackets; read-out: Human whole blood LTB4 IC50 (CI). The procedure:
All compounds were evaluated for inhibitory activity against the 5-LO-dependent generation of LTB4 from activated human whole blood. With ethical approval from the Health Sciences Centre Ethical Committee of Kuwait University, heparinised fresh human blood samples from apparently healthy individuals of both sexes were obtained from the Kuwait Central Blood Bank. All donors gave informed consent and the work was carried out in accordance with the “Declaration of Helsinki” for experiments involving human subjects. Aliquots of 185 µl of whole blood were dispensed into each well of a 96-well culture plate containing 5 µl of the priming agent, LPS (1 µg/ml final concentration). […] After further incubation for 15 min at 37 °C, 5 µl of FMLP (1 µM final concentration) was added to stimulate LT production. The reaction was stopped 15 min later, and the supernatants were recovered by centrifugation and stored at −40 °C pending analysis of LTB4 content.
Appropriately diluted supernatants were assayed for the released products – LTs (LTB4 and LTC4), by the enzyme immunoassay (EIA) method using assay kits supplied by R&D Systems (Minneapolis, MN) and following the manufacturer’s instructions.
All data were analysed using GraphPad Prism software (GraphPad Software, San Diego, CA). […] Differences between experimental groups were first analysed by one-way ANOVA, followed by Bonferroni’s post-hoc test. A p-value of less than 0.05 was taken as statistically significant.

The values that follow come from publication PMC7470027, “Synthesis and structure-activity relationships of novel 5-(hydroxamic acid)methyl oxazolidinone derivatives as 5-lipoxygenase inhibitors” (Journal of Enzyme Inhibition and Medicinal Chemistry, 2020).

Structures are written as SMILES.

On to `CCCCCCC(=O)N(O)C[C@H]1CN(c2ccc(N3CCOCC3)c(F)c2)C(=O)O1` [PH-249, (R)-N-((3-(3-fluoro-4-morpholinophenyl)-2-oxooxazolidin-5-yl)methyl)-N-hydroxyheptanamide], for which the “Activity across the in vitro test systems (in words)” value in data set [1] (cell-based systems and cell-free 5-LO) is on record as “active in all four test systems”. Moreover, the IC50 was less than 1000 nM in data set [1] (summary statements, in vitro test systems, read-out: IC50 (test system not specified / across test systems)) and 700 nM in data set [3]. Further, in data set [2], the “Effect on viability of isolated human monocytes (MTT)” value is recorded as “no significant effect on cell viability”.
